Results reported in US20230083012A1, “DIHYDROPYRIMIDINE DERIVATIVES AND USES THEREOF IN THE TREATMENT OF HBV INFECTION OR OF HBV-INDUCED DISEASES” (priority 2019, published 2023).

How the values were obtained:
HBV = experiment: Anti-HBV activity in HepG2.2.15 cells (HBV DNA in culture medium by qPCR); type: cell-based; details: Hepatitis B virus, HepG2.2.15, 144 h, HepG2.2.15 cells, 6 days treatment, HBV DNA in culture medium quantified by real-time PCR; read-out: EC50
Experimental: Example 2: Anti-Viral Assay in HepG2.2.15 Cells
(§1) HepG2.2.15 (the HepG2.2.15 cell line can be produced by transfection of the HepG2 cell line as described in Sells, Chen, and Acs 1987 (Proc. Natl. Acad. Sci. USA 84: 1005-1009), and the HepG2 cell line is available from ATCC® under number HIB-8065™)
(§2) HepG2.2.15 cells were plated into 96-well plate in 2% FBS culture medium at the density of 40,000 cells/well and 5,000 cells/well for HBV inhibitory activity and cytotoxicity determination, respectively. After incubation at 37° C., 5% CO2 overnight, cells were treated with medium containing compounds for 6 days with medium and compounds refreshed after 3 days of treatment. Each compound was tested in a 1:3 serial dilutions at 8 different concentrations in triplicate. The highest concentration of the compounds was 10 uM or 1 uM for anti-HBV activity assay and 100 uM for cytotoxicity determination.
The change of HBV DNA level induced by the compounds was assessed by quantitative real-time polymerase chain reaction (qPCR). Briefly, the HBV DNA in the culture medium was extracted using QIAamp 96 DNA Blood Kit according to the manual and then quantified by real-time PCR assay using the primers and probe in the table 2 below.
(§3) 2) DATA Analysis EC50 and CC50 values are calculated by the GRAPTIPAD PRISM software.

[1] = Cytotoxicity determination in HepG2.2.15 cells (CCK-8 cell viability); type: cell-based; details: human, 6 days treatment, CCK-8 assay, highest concentration 100 uM
Experimental: as §1, §2
Cell viability was determined by CCK-8 assay. After 6 days of compounds treatment, 20 μl CCK-8 reagents were added to each well of cytotoxicity assay plates. Cell plates were incubated at 37° C., 5% CO2 for 2.5 h. The absorbance at 450 nm wavelength and the absorbance at 630 nm wavelength as reference was measured.
as §3

| SMILES | EC50 (HBV) | CC50 at 6 days [1] |
| --- | --- | --- |
| CCOC(=O)C1=C(CN2CC(F)(F)[C@H]3CN(C(C)C(=O)O)C[C@H]32)NC(c2nccs2)=N[C@H]1c1cccc(F)c1C (single isomer, unassigned) [Compound 14B] | 0.102 µM | 67.9 µM |
| CCOC(=O)C1=C(CN2CC(F)(F)[C@H]3CN([C@H](C)C(=O)O)C[C@H]32)NC(c2nccs2)=N[C@H]1c1cccc(F)c1C (single isomer, unassigned) [Compound 14E] | 0.0623 µM | 85.3 µM |
| CCOC(=O)C1=C(CN2CC(F)(F)[C@H]3CN([C@@H](C)C(=O)O)C[C@H]32)NC(c2nccs2)=N[C@H]1c1cccc(F)c1C (single isomer, unassigned) [Compound 14F] | 0.125 µM | > 100 µM |
| CCOC(=O)C1=C(CN2CC(F)(F)[C@H]3CN(CC(C)C(=O)O)C[C@H]32)NC(c2nccs2)=N[C@H]1c1cccc(F)c1C (single isomer, unassigned) [Compound 15B] | 0.0272 µM | > 100 µM |
| CCOC(=O)C1=C(CN2CC(F)(F)[C@H]3CN(C[C@@H](C)C(=O)O)C[C@H]32)NC(c2nccs2)=N[C@H]1c1cccc(F)c1C (single isomer, unassigned) [Compound 15E] | 0.0225 µM | 41.7 µM |
| CCOC(=O)C1=C(CN2CC(F)(F)[C@H]3CN(C[C@H](C)C(=O)O)C[C@H]32)NC(c2nccs2)=N[C@H]1c1cccc(F)c1C (single isomer, unassigned) [Compound 15F] | 0.0161 µM | 39 µM |
| CCOC(=O)C1=C(CN2CC(F)(F)[C@@H]3CN(CC4(C(=O)O)CC4)C[C@@H]32)NC(c2nccs2)=N[C@H]1c1cccc(F)c1C (single isomer, unassigned) [Compound 16B] | 0.0686 µM | > 100 µM |
| CCOC(=O)C1=C(CN2CC(F)(F)[C@@H]3CN(CCC(C)(C)C(=O)O)C[C@@H]32)NC(c2nccs2)=N[C@H]1c1cccc(F)c1C (single isomer, unassigned) [Compound 17B] | 0.123 µM | 72.8 µM |
| CCOC(=O)C1=C(CN2CC(F)(F)[C@H]3CN([C@H]4C[C@H](C(=O)O)C4)C[C@H]32)NC(c2nccs2)=N[C@H]1c1cccc(F)c1C (single isomer, unassigned) [Compound 18A] | 0.0611 µM | 66.3 µM |
| CCOC(=O)C1=C(CN2CC(F)(F)[C@H]3CN([C@H]4C[C@@H](C(=O)O)C4)C[C@H]32)NC(c2nccs2)=N[C@H]1c1cccc(F)c1C (single isomer, unassigned) [Compound 18B] | 0.0737 µM | 64.2 µM |
| COC(=O)C1=C(CN2CC(F)(F)C3CN(CC(C)(C)C(=O)O)CC32)NC(c2nccs2)=N[C@H]1c1cccc(F)c1C (single isomer, unassigned) [Compound 19B, 3-((cis)-3,3-difluoro-1-((6-(3-fluoro-2-methylphenyl)-5-(methoxycarbonyl)-2-(thiazol-2-yl)-3,6-dihydropyrimidin-4-yl)methyl)hexahydropyrrolo[3,4-b]pyrrol-5(1H)-yl)-2,2-dimethylpropanoic acid] | 0.0493 µM | 24.2 µM |
| COC(=O)C1=C(CN2CC(F)(F)[C@@H]3CN(CC(C)(C)C(=O)O)C[C@@H]32)NC(c2nccs2)=N[C@H]1c1ccc(F)cc1Cl (single isomer, unassigned) [Compound 20B, 3-((cis)-1-((6-(2-chloro-4-fluorophenyl)-5-(methoxycarbonyl)-2-(thiazol-2-yl)-3,6-dihydropyrimidin-4-yl)methyl)-3,3-difluorohexahydropyrrolo[3,4-b]pyrrol-5(1H)-yl)-2,2-dimethylpropanoic acid] | 0.0395 µM | > 100 µM |
| COC(=O)C1=C(CN2CC(F)(F)[C@@H]3CN(CC(C)(C)C(=O)O)C[C@@H]32)NC(c2nccs2)=N[C@H]1c1ccc(F)c(F)c1Cl (single isomer, unassigned) [Compound 21B, 3-((cis)-1-((6-(2-chloro-3,4-difluorophenyl)-5-(methoxycarbonyl)-2-(thiazol-2-yl)-3,6-dihydropyrimidin-4-yl)methyl)-3,3-difluorohexahydropyrrolo[3,4-b]pyrrol-5(1H)-yl)-2,2-dimethylpropanoic acid] | 0.0227 µM | 97.3 µM |
| CCOC(=O)C1=C(CN2CC(F)(F)[C@@H]3CN(CC(C)(C)C(=O)O)C[C@@H]32)NC(c2nccs2)=N[C@H]1c1cccc(F)c1Cl (single isomer, unassigned) [Compound 22B, 3-((cis)-1-((6-(2-chloro-3-fluorophenyl)-5-(ethoxycarbonyl)-2-(thiazol-2-yl)-3,6-dihydropyrimidin-4-yl)methyl)-3,3-difluorohexahydropyrrolo[3,4-b]pyrrol-5(1H)-yl)-2,2-dimethylpropanoic acid] | 0.0089 µM | 70.4 µM |
| CCOC(=O)C1=C(CN2CC(F)(F)[C@@H]3CN(C(=O)CC(C)(C)C(=O)O)C[C@@H]32)NC(c2nccs2)=N[C@H]1c1cccc(F)c1C (single isomer, unassigned) [Compound 23B] | 0.024 µM | 30.2 µM |
| CCOC(=O)C1=C(CN2CC[C@]3(F)CN(CC(C)(C)C(=O)O)C(=O)[C@H]23)NC(c2nccs2)=N[C@H]1c1cccc(F)c1C (single isomer, unassigned) [Compound 24A] | 0.221 µM | 48.5 µM |
| CCOC(=O)C1=C(CN2CC[C@H]3C(=O)N(CC(C)(C)C(=O)O)C[C@H]32)NC(c2nccs2)=N[C@H]1c1cccc(F)c1C (single isomer, unassigned) [Compound 25A] | 0.0324 µM | 74.5 µM |
| CCOC(=O)C1=C(CN2CC(F)(F)[C@H]3[C@@H]2CCN3[C@H](C)C(=O)O)NC(c2nccs2)=N[C@H]1c1cccc(F)c1C (single isomer, unassigned) [Compound 26E] | 0.0052 µM | 28.1 µM |
| CCOC(=O)C1=C(CN2CC(F)(F)[C@H]3[C@@H]2CCN3[C@@H](C)C(=O)O)NC(c2nccs2)=N[C@H]1c1cccc(F)c1C (single isomer, unassigned) [Compound 26F] | 0.0148 µM | 41.7 µM |
| COC(=O)C1=C(CN2CC(F)(F)[C@@H]3C(=O)N(CC(C)(C)C(=O)O)C[C@@H]32)NC(c2nccs2)=N[C@H]1c1ccc(F)cc1Cl (single isomer, unassigned) [Compound 28, 3-((cis)-1-((6-(2-chloro-4-fluorophenyl)-5-(methoxycarbonyl)-2-(thiazol-2-yl)-3,6-dihydropyrimidin-4-yl)methyl)-3,3-difluoro-4-oxohexahydropyrrolo[3,4-b]pyrrol-5(1H)-yl)-2,2-dimethylpropanoic acid] | 0.0282 µM | > 100 µM |
| COC(=O)C1=C(CN2CC(F)(F)[C@@H]3C(=O)N(CC(C)(C)C(=O)O)C[C@@H]32)NC(c2nccs2)=N[C@H]1c1cccc(F)c1Cl (single isomer, unassigned) [Compound 29, 3-((cis)-1-((6-(2-chloro-3-fluorophenyl)-5-(methoxycarbonyl)-2-(thiazol-2-yl)-3,6-dihydropyrimidin-4-yl)methyl)-3,3-difluoro-4-oxohexahydropyrrolo[3,4-b]pyrrol-5(1H)-yl)-2,2-dimethylpropanoic acid] | 0.0135 µM | > 100 µM |
| CCOC(=O)C1=C(CN2CC(F)(F)[C@H]3[C@@H]2CCN3C(=O)[C@H]2CC[C@H](C(=O)O)CC2)NC(c2nccs2)=N[C@H]1c1cccc(F)c1C (single isomer, unassigned) [Compound 30] | 0.0813 µM | 28 µM |
| CCOC(=O)C1=C(CN2CC(F)(F)[C@@H]3CN(C(=O)NS(C)(=O)=O)C[C@@H]32)NC(c2nccs2)=N[C@H]1c1cccc(F)c1C (single isomer, unassigned) [Compound 31] | 0.106 µM | 85.8 µM |
| CCOC(=O)C1=C(CN2CC(F)(F)[C@@H]3CN(S(=O)(=O)NC(C)=O)C[C@@H]32)NC(c2nccs2)=N[C@H]1c1cccc(F)c1C (single isomer, unassigned) [Compound 32] | 0.0034 µM | 31.8 µM |
| CCOC(=O)C1=C(CN2CC(F)(F)[C@@H]3CN(S(N)(=O)=O)C[C@@H]32)NC(c2nccs2)=N[C@H]1c1cccc(F)c1C (single isomer, unassigned) [Compound 33] | 0.0024 µM | 14.6 µM |
| CCOC(=O)C1=C(CN2CC(F)(F)[C@H]3[C@@H]2CCN3S(N)(=O)=O)NC(c2nccs2)=N[C@H]1c1cccc(F)c1C (single isomer, unassigned) [Compound 34] | 0.012 µM | 14.3 µM |
| CCOC(=O)C1=C(CN2CC(F)(F)[C@@H]3CN(C(N)=O)C[C@@H]32)NC(c2nccs2)=N[C@H]1c1cccc(F)c1C (single isomer, unassigned) [Compound 35] | 0.0133 µM | 35.2 µM |
| CCOC(=O)C1=C(CN2CC(F)(F)[C@H]3[C@@H]2CCN3C(N)=O)NC(c2nccs2)=N[C@H]1c1cccc(F)c1C (single isomer, unassigned) [Compound 36] | 0.0301 µM | 26 µM |
